Measurements taken from US10087166B2, “Cyclic amine azaheterocyclic carboxamides” (Merck Patent GmbH, priority 2010, dated 2018).

Target: T1, P70S6K (Homo sapiens, UniProt P23443, T412E)
T1 construct: purchased Millipore
Experiment: P70S6K enzyme assay
Format: biochemical
Settings: P70S6K T412E mutant 3 nM, 24 μM ATP, FITC-AHA-AKRRRLSSLRA-OH substrate, 90 min at 25° C.; read-out: IC50p70S6K
Protocol: P70S6K inhibitor compounds are diluted and plated in 96 well plates. A reaction mixture including the following components is then added to the compound plate to initiate the enzyme reaction; P70S6K (3 nM, T412E mutant, Millipore) is mixed with 24 μM ATP in an assay buffer containing 100 mM Hepes (pH 7.5), 5 mM MgCl2, 1 mM DTT, 0.015% Brij and 1 μM of the substrate peptide FITC-AHA-AKRRRLSSLRA-OH (derived from the S6 ribosomal protein sequence, FITC=fluorescein isothiocyanate, AHA=6-aminohexanoic acid). The reaction is incubated for 90 min at 25° C., before the addition of 10 mM EDTA to stop the reaction. The proportion of substrate and product (phosphorylated) peptide is analyzed on a Caliper Life Sciences Lab Chip 3000, using a pressure of −1.4 psi, and upstream and downstream voltages of −3000 and −700 respectively. Product peaks are resolved before substrate peaks on the resulting chromatograms.
To assess the inhibitory potential of the compounds, IC50-values were determined, as shown in Chemical Synthesis section above.

T1 sequence (P23443 whole entry T412E): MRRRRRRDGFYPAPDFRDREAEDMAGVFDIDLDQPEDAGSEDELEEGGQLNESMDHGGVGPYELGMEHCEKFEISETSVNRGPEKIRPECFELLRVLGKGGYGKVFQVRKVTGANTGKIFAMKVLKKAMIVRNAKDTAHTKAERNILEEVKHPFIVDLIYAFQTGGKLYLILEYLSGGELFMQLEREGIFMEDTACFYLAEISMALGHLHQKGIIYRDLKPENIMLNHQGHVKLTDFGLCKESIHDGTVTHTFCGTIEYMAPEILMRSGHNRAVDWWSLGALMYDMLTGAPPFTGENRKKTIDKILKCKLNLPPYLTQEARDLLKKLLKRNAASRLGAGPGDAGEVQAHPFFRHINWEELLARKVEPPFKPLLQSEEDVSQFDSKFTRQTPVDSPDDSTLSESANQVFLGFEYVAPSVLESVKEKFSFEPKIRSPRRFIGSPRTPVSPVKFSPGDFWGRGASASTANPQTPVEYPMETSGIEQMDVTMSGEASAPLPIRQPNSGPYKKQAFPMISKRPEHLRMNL

| SMILES | IC50 |
| --- | --- |
| Cc1nc(N[C@@H]2CNCC[C@H]2c2ccccc2)c2cccc(C(N)=O)c2n1 (racemic) [compound 40, 2-methyl-4-((4-phenylpiperidin-3-yl)amino)quinazoline-8-carboxamide] | 6.4 nM |
| NC(=O)c1cccc2c(N[C@H]3CNC[C@@H]3c3ccc(C(F)(F)F)cc3)ncnc12 (racemic) [compound 52] | 6.5 nM |
| NC(=O)c1cccc2c(N[C@@H]3CNC[C@@H]3c3cccc(OC(F)(F)F)c3)ncnc12 (racemic) [compound 55] | 9 nM |
| NC(=O)c1cccc2c(N[C@H]3CNC[C@@H]3c3ccc4ncccc4c3)ncnc12 (racemic) [compound 69] | 3.2 nM |
| Cc1cc([C@H]2CNC[C@@H]2Nc2ncnc3c(C(N)=O)cccc23)ccc1F (racemic) [compound 74] | 8.8 nM |
| N#Cc1cccc([C@@H]2CNC[C@@H]2Nc2ncnc3c(C(N)=O)cccc23)c1 (racemic) [compound 86] | 14 nM |
| NC(=O)c1cccc2c(N[C@H]3CNC[C@@H]3c3ccc4c(c3)CCO4)ncnc12 (racemic) [compound 89] | 3.2 nM |
| COc1ccc([C@H]2CNC[C@@H]2Nc2ncnc3c(C(N)=O)cccc23)cc1F (racemic) [compound 102] | 2.9 nM |
| NC(=O)c1cccc2c(N[C@H]3CNC[C@@H]3c3cc(F)c(F)cc3F)ncnc12 (racemic) [compound 105, 4-(((3R,4S)-4-(2,4,5-trifluorophenyl)pyrrolidin-3-yl)amino)quinazoline-8-carboxamide] | 420 nM |
| CCc1nc(N[C@@H]2CNC[C@H]2c2cccc(F)c2)c2cccc(C(N)=O)c2n1 (racemic) [compound 107] | 5.5 nM |
| CS(=O)(=O)c1ccc([C@H]2CNC[C@@H]2Nc2ncnc3c(C(N)=O)cccc23)cc1 (racemic) [compound 111] | 7.5 nM |
| NC(=O)c1cccc2c(N[C@H]3CNC[C@@H]3c3cccc(F)c3F)ncnc12 (racemic) [compound 116] | 4.1 nM |
| NC(=O)c1cccc2c(N[C@H]3CNC[C@@H]3c3cccc(N4CCCC4)c3)ncnc12 (racemic) [compound 117, 4-(((3R,4S)-4-(3-(pyrrolidin-1-yl)phenyl)pyrrolidin-3-yl)amino)quinazoline-8-carboxamide] | 5.9 nM |
| NC(=O)c1cccc2c(N[C@H]3CNC[C@@H]3c3ccc(F)c(-c4cccnc4)c3)ncnc12 (racemic) [compound 119] | 15 nM |
| NC(=O)c1cccc2c(N[C@H]3CNC[C@@H]3c3ccc(-c4cccnc4)c(F)c3)ncnc12 (racemic) [compound 121] | 6 nM |
| CN1CC[C@@H](c2ccccc2)[C@H](Nc2ncnc3c(C(N)=O)cccc23)C1 (racemic) [compound 124] | 22 nM |
| CCc1nc(N[C@@H]2CNCC[C@H]2c2cccc(C(F)(F)F)c2)c2cccc(C(N)=O)c2n1 (racemic) [compound 125] | 3.9 nM |

| SMILES | IC50 |
| --- | --- |
| COc1cccc([C@@H]2CCNC[C@H]2Nc2nc(C)nc3c(C(N)=O)cccc23)c1 (racemic) [compound 126] | 4.5 nM |
| Cc1nc(N[C@@H]2CNCC[C@H]2c2ccc(F)cc2)c2cccc(C(N)=O)c2n1 (racemic) [compound 132] | 5.4 nM |
| CCc1nc(N[C@@H]2CNCC[C@H]2c2ccc(F)cc2)c2cccc(C(N)=O)c2n1 (racemic) [compound 133] | 3.6 nM |
| Cc1nc(N[C@@H]2CNCC[C@H]2c2ccc(F)cc2)c2cccc(C(N)=O)c2n1 (racemic) [compound 134] | 4.2 nM |
| COc1cccc([C@@H]2CCNC[C@H]2Nc2ncnc3c(C(N)=O)cccc23)c1 (racemic) [compound 135] | 4.3 nM |
| Cc1nc(N[C@@H]2CNCC[C@H]2c2ccccc2F)c2cccc(C(N)=O)c2n1 (racemic) [compound 136] | 210 nM |
| Cc1nc(N[C@@H]2CNCC[C@H]2c2cccc(C(F)(F)F)c2)c2cccc(C(N)=O)c2n1 (racemic) [compound 138, 2-methyl-4-(((3R,4R)-4-(3-(trifluoromethyl)phenyl)piperidin-3-yl)amino)quinazoline-8-] | 2.7 nM |
| COc1ccc([C@@H]2CCNC[C@H]2Nc2ncnc3c(C(N)=O)cccc23)cc1OC (racemic) [compound 139] | 18 nM |
| NC(=O)c1cccc2c(N[C@@H]3CNCC[C@H]3c3cc(F)cc(C(F)(F)F)c3)ncnc12 (racemic) [compound 140] | 3.1 nM |
| Cc1nc(N[C@@H]2CNCC[C@H]2c2ccc(C(F)(F)F)cc2)c2cccc(C(N)=O)c2n1 (racemic) [compound 141] | 2.9 nM |
| CCc1nc(N[C@@H]2CNCC[C@H]2c2ccccc2F)c2cccc(C(N)=O)c2n1 (racemic) [compound 142] | 450 nM |
| CCc1nc(N[C@@H]2CNCC[C@H]2c2cccc(C)c2)c2cccc(C(N)=O)c2n1 (racemic) [compound 144] | 5 nM |
| Cc1cc(C)cc(C2CCNCC2Nc2ncnc3c(C(N)=O)cccc23)c1 (racemic) [compound 145, 4-((4-(3,5-dimethylphenyl)piperidin-3-yl)amino)quinazoline-8-carboxamide] | 10 nM |
| NC(=O)c1cc(F)cc2c(N[C@@H]3CNCC[C@H]3c3ccccc3)ncnc12 (racemic) [compound 146, 6-fluoro-4-(((3R,4R)-4-phenylpiperidin-3-yl)amino)quinazoline-8-carboxamide] | 7.1 nM |
| NC(=O)c1cccc2c(N[C@@H]3CNC[C@H]3C(=O)Nc3ccccc3)ncnc12 (relative stereo) [compound 26, trans-4-(4-Phenylcarbamoyl-pyrrolidin-3-ylamino)-quinazoline-8-carboxylic acid amide] | 22 nM |
| NC(=O)c1cccc2c(NC3CNCC3c3ccccc3F)ncnc12 (stereo not shown) [compound 4, 4-((4-(2-fluorophenyl)pyrrolidin-3-yl)amino)quinazoline-8-carboxamide] | 3.5 nM |
| COc1ccccc1C1CNCC1Nc1ncnc2c(C(N)=O)cccc12 (stereo not shown) [compound 8, 4-((4-(2-methoxyphenyl)pyrrolidin-3-yl)amino)quinazoline-8-carboxamide] | 18 nM |

The remaining compounds from weak to strong by IC50, led by results:

| IC50 | SMILES |
| --- | --- |
| 2.7 nM | Cc1nc(N[C@H]2CNC[C@@H]2c2ccccc2Cl)c2cccc(C(N)=O)c2n1 (racemic) [compound 98] |
| 2.6 nM | NC(=O)c1cccc2c(NC3CNCC3c3ccc(F)cc3)ncnc12 (stereo not shown) [compound 5, 4-((4-(4-fluorophenyl)pyrrolidin-3-yl)amino)quinazoline-8-carboxamide] |
| 2.6 nM | COc1cccc(C2CNCC2Nc2ncnc3c(C(N)=O)cccc23)c1 (stereo not shown) [compound 7, 4-((4-(3-methoxyphenyl)pyrrolidin-3-yl)amino)quinazoline-8-carboxamide] |
| 2.4 nM | NC(=O)c1cccc2c(N[C@H]3CNC[C@@H]3c3cccc(OC(F)(F)F)c3)ncnc12 (racemic) [compound 56] |
| 2.4 nM | Cc1nc(NC2CNCC2c2ccc(F)cc2)c2cccc(C(N)=O)c2n1 (stereo not shown) [compound 17, 4-((4-(4-fluorophenyl)pyrrolidin-3-yl)amino)-2-methylquinazoline-8-carboxamide] |
| 2.3 nM | NC(=O)c1cccc2c(N[C@@H]3CNCC[C@H]3c3cc(F)cc(F)c3)ncnc12 (racemic) [compound 123] |
| 2.1 nM | NC(=O)c1cccc2c(N[C@@H]3CNC[C@H]3c3cccc(Cl)c3F)ncnc12 (racemic) [compound 109] |
| 2 nM | Cc1c(F)cccc1[C@H]1CNC[C@@H]1Nc1ncnc2c(C(N)=O)cccc12 (racemic) [compound 92] |
| 2 nM | NC(=O)c1cccc2c(N[C@@H]3CNCC[C@H]3c3ccc(C(F)(F)F)cc3)ncnc12 (racemic) [compound 127] |
| 2 nM | COc1ccc(C2CNCC2Nc2ncnc3c(C(N)=O)cccc23)cc1 (stereo not shown) [compound 6, 4-((4-(4-methoxyphenyl)pyrrolidin-3-yl)amino)quinazoline-8-carboxamide] |
| 1.9 nM | NC(=O)c1cccc2c(N[C@H]3CNC[C@@H]3c3cc(F)cc(C(F)(F)F)c3)ncnc12 (racemic) [compound 45] |
| 1.8 nM | NC(=O)c1cccc2c(N[C@H]3CNC[C@@H]3c3cccc(Br)c3)ncnc12 (racemic) [compound 85] |
| 1.8 nM | Cc1nc(N[C@H]2CNC[C@@H]2c2ccc(Cl)c(F)c2)c2cccc(C(N)=O)c2n1 (racemic) [compound 103] |
| 1.8 nM | COc1ccc(C2CNCC2Nc2nc(C)nc3c(C(N)=O)cccc23)cc1 (stereo not shown) [compound 18, 4-((4-(4-methoxyphenyl)pyrrolidin-3-yl)amino)-2-methylquinazoline-8-carboxamide] |
| 1.7 nM | NC(=O)c1cccc2c(N[C@H]3CNC[C@@H]3c3cccc(C(F)(F)F)c3)ncnc12 (racemic) [compound 48] |
| 1.7 nM | NC(=O)c1cccc2c(N[C@H]3CNC[C@@H]3c3ccc(OC(F)(F)F)cc3)ncnc12 (racemic) [compound 59] |
| 1.54 nM | NC(=O)c1cccc2c(N[C@H]3CNC[C@@H]3c3ccc4ccccc4c3)ncnc12 (racemic) [compound 110] |
| 1.5 nM | NC(=O)c1cccc2c(N[C@H]3CNC[C@@H]3c3cc(F)cc(Cl)c3)ncnc12 (racemic) [compound 114] |
| 1.4 nM | NC(=O)c1cccc2c(N[C@H]3CNC[C@@H]3c3ccc(F)c(Cl)c3)ncnc12 (racemic) [compound 100] |
| 1.4 nM | NC(=O)c1cccc2c(N[C@H]3CNC[C@@H]3c3ccc(-c4ccccc4)c(F)c3)ncnc12 (racemic) [compound 120] |
| 0.088 nM | NC(=O)c1cccc2c(N[C@H]3CNC[C@@H]3c3ccc(Cl)c(F)c3)ncnc12 (racemic) [compound 99] |
